# Legend:
# 18-month-old mice = assay: iPTH in aged mice: safranin O staining and immunostaining of IVD sections; assay type: in vivo, mouse
# Method: For immunocytochemical staining, we incubated GFP labeled NP cells co-stained with primary antibody to rabbit PTH1R PRB-635P (Covance, 1:100) for 1 h and subsequently stained with secondary antibodies conjugated with fluorescence at room temperature. At the time of euthanasia, we dissected and fixed the lumbar vertebral spine in 10% buffered formalin for 48 h, decalcified them in 10% EDTA (pH 7.4) for 14-21 days and embedded them in paraffin or optimal cutting temperature (OCT) compound (Sakura Finetek). Fourmicrometer-thick coronal-oriented sections of the L1-L6 spine were processed for safranin O and fast green staining. Sections for immunostaining was performed using a standard protocol and incubated with primary antibodies to rabbit ACAN (Abcam, 1:100), CCN2 (Abcam, 1:100), integrin β8 (Abcam, 1:200), pCREB (Abcam, 1:100) and PTH1R PRB-635P (Covance, 1:100), mouse pSmad2/3 (Santa Cruz, 1:100), integrin αvβ6 (Millipore, 1:100), integrin αvβ3 (Bioss, 1:100,), integrin αvβ5 (Bioss, 1:100) at 4° C. overnight. For immunohistochemical staining, a horse radish peroxidase-streptavidin detection system (Dako) was subsequently used to detect the immunoactivity, followed by counterstaining with hematoxylin (Sigma-Aldrich). For immunofluorescent assay, the slides were incubated with secondary antibodies conjugated with fluorescence at room temperature for 1 h while avoiding light. We used isotype-matched controls, such as polyclonal rabbit IgG (R&D Systems, AB-105-C) under the same concentrations and conditions as negative controls. We micro photographed sections to perform histomorphometric measurements on the entire area of the L3-L4 of the spine (Olympus DP71).
# Quantitative histomorphometric analysis was conducted in a blinded fashion with Image-Pro Plus Software version 6.0 (Media Cybernetics Inc). IVD histological score were obtained as previously described67. Five randomly selected sections per mice in each group at L3-L4 level were chosen for quantitative histomorphometric analysis. The percentage of pSmad2/3 and pCREB positive cells was obtained by counting the number of positive staining cells to the number of total cells in the NP region. The percentage area of CCN2 and ACAN positive staining was calculated by measuring the positive area to the whole area of the L3-L4 in each group.
# IFT88-/- mice = assay: iPTH in IFT88-/- and wild-type mice: PPCT IVD volume and IVD histological score; assay type: in vivo, mouse
# Description: Mice carrying the PTH1R gene flanked by loxP sites (PTH1R^flox/flox) were mated with Noto^Cre mice to generate mice bearing Noto^Cre and a floxed PTH1R allele in their germline. These mice were backcrossed to homozygous floxed mice (Noto^Cre/+/PTH1R^flox/+::PTH1R^flox/flox) to generate mice with inactivation of both alleles in notochord derived cells (genotype […]). Homozygous disruption of the Noto locus is perinatally lethal; viable offspring have genotypes of either Noto^Cre/+:: PTH1R^flox/flox (mice with PTH1R conditional deletion in Noto lineage cells are referred to as “[…]” in the text) or Noto^+/+:: PTH1R^flox/flox (wild-type littermates hereinafter referred to as “PTH1R^+/+” in the text). The genotype of transgenic mice was determined by PCR analyses of genomic DNA isolated from mouse tails. The floxed PTH1R allele was identified with primers lox1F (5-[…] ID NO: 1) and lox1R (5-[…] ID NO: 2). The genotyping for the Cre transgene was performed by PCR with the primers […] ID NO: 3) […] ID NO: 4). We generated Noto^Cre/+:: ROSA26-lacZ^flox/flox by crossing Noto mice with mice homozygous with a loxP-flanked DNA stop sequence, preventing expression of the downstream lacZ gene. IFT88^flox/flox mouse model has been generated as descripted. A NP tissue-specific primary cilia knock-out (KO) mouse line was generated by crossing NotoCre mice with IFT88^flox/flox mice, in which the primary cilia were deleted from the NP tissue. The loxP IFT88 allele was identified with the primers lox2F ([NT] ID NO: 5) and lox2R ([NT] ID NO: 6). The 11 month-old PTH1R^+/+ and PTH1R^-/- male mice were randomized into four groups: PTH1R^+/++PTH (1-34), PTH1R^+/++Vehicle, PTH1R^-/-+PTH (1-34) and PTH1R^-/-+Vehicle groups (n=8 per group). […] Quantitative histomorphometric analysis was conducted in a blinded fashion with Image-Pro Plus Software version 6.0 (Media Cybernetics Inc). […] Five randomly selected sections per mice in each group at L3-L4 level were chosen for quantitative histomorphometric analysis. […] The percentage area of CCN2 and ACAN positive staining was calculated by measuring the positive area to the whole area of the L3-L4 in each group. […] The images were reconstructed and analyzed using the GPU-CT-Reconstruction software (applied by the BL13W1 experimental station) and the VG Studio Max 3D software (version 2.1, Volume Graphics GmbH, Germany) respectively. […] The 3D quantitative analysis of IVDs was performed with the commercially available Image Pro Analyzer 3D software (Version 7.0, Media Cybernetics, Inc., USA). The 3D structural parameters analyzed for the mean height and volume and thickness distribution of IVDs. […]
smiles,measurement,setting,value
"CC[C@H](C)[C@H](NC(=O)[C@H](CCC(=O)O)NC(=O)[C@H](CO)NC(=O)[C@@H](NC(=O)[C@@H](N)CO)C(C)C)C(=O)N[C@@H](CCC(N)=O)C(=O)N[C@@H](CC(C)C)C(=O)N[C@@H](CCSC)C(=O)N[C@@H](Cc1cnc[nH]1)C(=O)N[C@@H](CC(N)=O)C(=O)N[C@@H](CC(C)C)C(=O)NCC(=O)N[C@@H](CCCCN)C(=O)N[C@@H](Cc1cnc[nH]1)C(=O)N[C@@H](CC(C)C)C(=O)N[C@@H](CC(N)=O)C(=O)N[C@@H](CO)C(=O)N[C@@H](CCSC)C(=O)N[C@@H](CCC(=O)O)C(=O)N[C@@H](CCCN=C(N)N)C(=O)N[C@H](C(=O)N[C@@H](CCC(=O)O)C(=O)N[C@@H](Cc1c[nH]c2ccccc12)C(=O)N[C@@H](CC(C)C)C(=O)N[C@@H](CCCN=C(N)N)C(=O)N[C@@H](CCCCN)C(=O)N[C@@H](CCCCN)C(=O)N[C@@H](CC(C)C)C(=O)N[C@@H](CCC(N)=O)C(=O)N[C@@H](CC(=O)O)C(=O)N[C@H](C(=O)N[C@@H](Cc1cnc[nH]1)C(=O)N[C@@H](CC(N)=O)C(=O)N[C@@H](Cc1ccccc1)C(=O)O)C(C)C)C(C)C [PTH (1-34), teriparatide]",IVD score,18-month-old mice,decrease
same,level of CCN2+,18-month-old mice; immunostaining,increased
same,level of aggrecan,18-month-old mice; immunostaining,increased
same,number of pSmad2/3+ NP cells,18-month-old mice; immunostaining,increased
same,number of NP cells,18-month-old mice; safranin O,significantly increased
same,improvement of IVD scores by iPTH,IFT88-/- mice; IFT88-/- mice,impaired
same,iPTH-increased IVD volume,IFT88-/- mice; IFT88-/- mice relative to wild-type mice,blunted
same,IVD scores,IFT88-/- mice; wild-type mice,improvement
same,IVD volume,IFT88-/- mice; wild-type mice,increased

# Source: patent US20210205638A1, “PARATHYROID HORMONE AND REGENERATION OF DEGENERATIVE DISCS DISEASE” (THE JOHNS HOPKINS UNIVERSITY, priority 2017, published 2021)
